Measurements: patent EP4796125A1, “TREATMENT OF PATIENT WITH NEGATIVE P53 GENE MUTATION, POSITIVE KRAS GENE MUTATION AND POSITIVE BRCA MUTATION” (Ascentawits Pharmaceuticals, Ltd., priority 2023, dated 2025)

What was measured:
H460 cells [1] = assay: Cell cycle G2/M arrest, PI staining and flow cytometry; assay type: cell-based; conditions: 0.1 nM AST-3424, 5 µM Nutlin-3, 24 hours, combination: AST-3424 added first (Figure 9)
Description: (§1) • 1) H460/HPAF-II cell suspensions were added to a 24-well plate, with a cell density of 100000 cells/well and 995 µL of medium per well. • 2) The cells were cultured overnight in a 37°C, 5% CO2 incubator. • 3) Compound Treatment
(§2) 24 hours after cell plating, according to the protocol, the experimental groups for each cell line were as follows: Monotherapy: 24 hours after cell plating, 5 µL of test compounds at different concentrations was added: 1% DMSO, 5 µM Nutlin-3, and 0.1 nM AST-3424. The plate was gently shaken to ensure even mixing, and then placed in a 37°C, 5% CO2 incubator.
(§3) • Cells were pretreated with AST-3424 for 2 hours, and then co-treatment with Nutlin-3 for 24 hours; • cells were pretreated with Nutlin-3 for 2 hours, and then co-treatment with AS -3424 for 24 hours; and • cells were co-treated with AST-3424 and Nutlin-3 for 24 hours. • 4) The cells were digested, centrifuged at 1000 g at 4°C, washed once with pre-cooled PBS, centrifuged at 1000 g at 4°C, and fixed with 1 mL of pre-cooled 70% ethanol at - 20°C overnight. • 5) The cells were centrifuged at 3000 g at 4°C, washed once with pre-cooled PBS (phosphate buffer), and centrifuged at 3000g at 4°C. PI staining solution was prepared. The cells were stained at 37°Cfor 30 minutes (protected from light), and stored in an ice bath (protected from light). The cells were detected using a flow cytometer on the same day, and the proportions of cells in different cell cycle phases was analyzed using FlowJo.
The remaining operations were similar to those of the above experiment, and the compound treatment was as follows: […]

HPAF-II cells [2] = assay: as above; assay type: cell-based, human; conditions: HPAF-II cells with p53 pathogenic mutations; 0.1 nM AST-3424, 5 µM Nutlin-3 (Figure 9)
Description: as §1, §2
as §3, with “The cells were stained at 37°Cfor 30 minutes (protected from light), and stored in an ice bath (protected from light).” left out

H460 cells [3] = assay: In vitro proliferation inhibition experiment (CTG, 72 hours), Example 20; assay type: cell-based
Description: (§4) • 1) H460 and HPAF-II cell suspensions were added to a 96-well plate (100 µL per well), with cell densities of 2000 cells/well and 20000 cells/well, respectively. • 2) The cells were cultured overnight in a 37°C, 5% CO2 incubator. • 3) Compound Treatment
(§5) Combination therapy: 24 hours after cell plating, each well was supplemented with 99 µL of growth medium. Then, 0.5 µL of Nutlin-3 or RITA was added to each well. The plate was gently shaken to ensure even mixing, and then placed in an incubator for 2 hours. Then, 0.5 µL of test compounds at different concentrations was added. The plate was gently shaken to ensure even mixing, and then placed in a 37°C, 5% CO2 incubator.
(§6) Monotherapy: 24 hours after cell plating, each well was supplemented with 99.5 µL of growth medium. Then, 0.5 µL of test compounds at different concentrations was added. The plate was gently shaken to ensure even mixing, and then placed in a 37°C, 5% CO2 incubator. • 4) The cell plate was placed in the incubator for 72 hours. • 5) The cell plate to be tested was placed at room temperature and equilibrated for 30 minutes, and 100 µL of medium was discarded from each well. • 6) 25 µL of CTG reagent was added to each well, placed on a fast shaker to shake for 2 minutes, and placed at room temperature for 30 minutes (protected from light). • 7) The chemiluminescence signal value was read using a multifunctional microplate reader with a reading time of 1000 ms, and the corresponding inhibition rate data were calculated.

HPAF-II cells [4] = assay: as above; assay type: cell-based, human; conditions: Table 14, HPAF-II
Description: as §4, §5, §6

[5] = test system: Ser15-p53, Ser20-p53, Total p53, MDM2, and p21 proteins in H460 cells; assay: WB detection of p53 protein pathway (Ser15-p53, Ser20-p53, Total p53, MDM2, p21); assay type: cell-based; conditions: second experiment: 0.1, 0.3, 1 nM AST-3424 ± 5 µM Nutlin-3, 24 hours, AST-3424 dose-dependent (Figure 16)
Description: • 1) H460 cell suspension was added to a 24-well plate, with a cell density of 80000 cells/well and 995 µL of medium per well. • 2) The cells were cultured overnight in a 37°C, 5% CO2 incubator. • 3) Compound Treatment
24 hours after cell plating, according to the protocol, the experimental groups for each cell line were as follows: • Monotherapy: 24 hours after cell plating, 5 µL of test compounds at different concentrations was added: 0.5% DMSO, 0.1 nM AST-3424, and 5 µM Nutlin-3. The plate was gently shaken to ensure even mixing, and then placed in a 37°C, 5% CO2 incubator. • Combination therapy: 24 hours after cell plating, 5 µL of test compounds at different concentrations was added. After pre-treatment with 5 µM Nutlin-3 for 2 hours, 0.1 nM AST-3424 was added. The plate was gently shaken to ensure even mixing, and then placed in a 37°C, 5% CO2 incubator.
4) Cell protein lysates were collected for WB detection.
• Adding 0.1 nM AST-3424 for pre-treatment for 2 hours, and then adding 5 µM Nutlin-3 for co-treatment for 22 hours; • Adding 0.3 nM AST-3424 for pre-treatment for 2 hours, and then adding 5 µM Nutlin-3 for co-treatment for 22 hours; • Adding 1 nM AST-3424 for pre-treatment for 2 hours, and then adding 5 µM Nutlin-3 for co-treatment for 22 hours. […]

[6] = test system: Total P53, MDM2, P21, AKR1C3 proteins in H460 cells; assay: WB detection ± Nutlin-3 in H460 and H460 P53 KO cells; assay type: cell-based; conditions: wild-type H460 cells; 5 µM Nutlin-3, 24h; compared with the H460 wild-type DMSO group (Figures 33, 34)
Description: • 1) H460 and H460 P53 KO cell suspensions were added to 24-well plates, with a cell density of 100000 cells/well and 995 µL of medium per well. • 2) The cells were cultured overnight in a 37°C, 5% CO2 incubator. • 3) Compound Treatment
24 hours after cell plating, according to the protocol, the experimental groups for each cell line were as follows: H460 WT non-treatment group, H460 P53 KO # 1 non-treatment group, H460 P53 KO # 7 non-treatment group, H460 P53 KO # 8 non-treatment group, H460 P53 KO # 12 non-treatment group, H460 WT 0.1% DMSO treatment group, H460 WT 5 µM Nutlin-3 treatment group, H460 P53 KO # 1 5 µM Nutlin-3 treatment group, H460 P53 KO # 7 5 µM Nutlin-3 treatment group, H460 P53 KO # 8 5 µM Nutlin-3 treatment group, and H460 P53 KO # 12 5 µM Nutlin-3 treatment group.
Monotherapy: 24 hours after cell plating, 5 µL of test compounds at different concentrations was added. […]
• 1) The cell plates were taken out and the medium supernatant was discarded. […] The cells were scraped off with a cell scraper, lysed on ice for 30 min, and centrifuged at 14000 rpm at 4°C for 10 min. • 2) Protein quantification was performed using the BCA assay. […] After the incubation, the membranes were washed three times with TBST (10 min per wash).The ECL luminescence solutions A and B (SuperSignal West Femto Maximum Sensitivity) were mixed and added to the membranes blotting dry. […]

## COc1ccc(C2=N[C@@H](c3ccc(Cl)cc3)[C@@H](c3ccc(Cl)cc3)N2C(=O)N2CCNC(=O)C2)c(OC(C)C)c1 [Nutlin-3]
H460 cells [1]
  cell cycle (G0/G1, S, G2/M phases): does not significantly alter the cell cycle
HPAF-II cells [2]
  cell cycle (G0/G1, S, G2/M phases): has no effect
H460 cells [3]; Table 12, H460, group 1: AST 0.5 nM, Nutlin-3 0.25 µM, AST + Nutlin-3 0.5+0.25
  Inhibition rate result / %: 11.8%
H460 cells [3]; Table 12, H460, group 2: AST 0.5 nM, Nutlin-3 0.5 µM, AST + Nutlin-3 0.5+0.5
  Inhibition rate result / %: 17.27%
H460 cells [3]; Table 12, H460, group 3: AST 0.5 nM, Nutlin-3 1 µM, AST + Nutlin-3 0.5+1
  Inhibition rate result / %: 18.3%
H460 cells [3]; Table 12, H460, group 4: AST 1.5 nM, Nutlin-3 0.25 µM, AST + Nutlin-3 1.5+0.25
  Inhibition rate result / %: 11.8%
H460 cells [3]; Table 12, H460, group 5: AST 1.5 nM, Nutlin-3 0.5 µM, AST + Nutlin-3 1.5+0.5
  Inhibition rate result / %: 17.27%
H460 cells [3]; Table 12, H460, group 6: AST 1.5 nM, Nutlin-3 1 µM, AST + Nutlin-3 1.5+1
  Inhibition rate result / %: 18.3%
HPAF-II cells [4]; group 1: AST 20 nM, Nutlin-3 7.5 µM, AST + Nutlin-3 20+7.5
  Inhibition rate result / %: 8.54%
HPAF-II cells [4]; group 2: AST 20 nM, Nutlin-3 10 µM, AST + Nutlin-3 20+10
  Inhibition rate result / %: 52.46%
HPAF-II cells [4]; group 3: AST 20 nM, Nutlin-3 15 µM, AST + Nutlin-3 20+15
  Inhibition rate result / %: 73.93%
HPAF-II cells [4]; group 4: AST 60 nM, Nutlin-3 7.5 µM, AST + Nutlin-3 60+7.5
  Inhibition rate result / %: 8.54%
HPAF-II cells [4]; group 5: AST 60 nM, Nutlin-3 10 µM, AST + Nutlin-3 60+10
  Inhibition rate result / %: 52.46%
HPAF-II cells [4]; group 6: AST 60 nM, Nutlin-3 15 µM, AST + Nutlin-3 60+15
  Inhibition rate result / %: 73.93%
[5]
  phosphorylation of p53 (Ser15-p53 and Ser20-p53), protein expression of total-p53, expression of MDM2 and p21: upregulates
[6]
  expressions of MDM2, P53, P21, and AKR1C3 proteins: all upregulated
